Reference: patent US20240199605A1, “SMALL MOLECULAR INHIBITORS OF NF-kB INDUCING KINASE” (Janssen Pharmaceutica NV, priority 2019, published 2024)

Experiments:
[1] = system: p-IKKα levels in L363 (NIK translocated multiple myeloma) cells; test: Effect of compounds on p-IKKα levels in L363 cells (AlphaLISA SureFire Ultra); assay type: cell-based, human; conditions: Homo sapiens, L-363, 6 h, BAFF stimulated, MG132, 6 h, average of values, read-out: Assay 2 IC50
Method in brief: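 Inhibition of p-IKKα (Ser176/180) read by AlphaLISA after 6 h, 37 °C compound exposure (11-point 1:3 series, 0.3% DMSO) of L363 cells pre-incubated overnight ± 250 ng/ml BAFF and plated ± BAFF ± 10 μM MG132. Normalised to BAFF/MG132/DMSO and unstimulated controls; IC50 by sigmoidal fitting, duplicates.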

[2] = target: recombinant human NF-kappaB-inducing kinase (NIK/MAP3K14) (Homo sapiens (Human), UniProt Q99558); test: Inhibition of auto-phosphorylation of recombinant human NIK/MAP3K14 (AlphaScreen); assay type: biochemical; conditions: NIK auto-phosphorylation, 5 μM ATP, 1 nM NIK, 2 h at 25° C.; average of values
recombinant human NF-kappaB-inducing kinase (NIK/MAP3K14), sequence (Q99558 whole entry): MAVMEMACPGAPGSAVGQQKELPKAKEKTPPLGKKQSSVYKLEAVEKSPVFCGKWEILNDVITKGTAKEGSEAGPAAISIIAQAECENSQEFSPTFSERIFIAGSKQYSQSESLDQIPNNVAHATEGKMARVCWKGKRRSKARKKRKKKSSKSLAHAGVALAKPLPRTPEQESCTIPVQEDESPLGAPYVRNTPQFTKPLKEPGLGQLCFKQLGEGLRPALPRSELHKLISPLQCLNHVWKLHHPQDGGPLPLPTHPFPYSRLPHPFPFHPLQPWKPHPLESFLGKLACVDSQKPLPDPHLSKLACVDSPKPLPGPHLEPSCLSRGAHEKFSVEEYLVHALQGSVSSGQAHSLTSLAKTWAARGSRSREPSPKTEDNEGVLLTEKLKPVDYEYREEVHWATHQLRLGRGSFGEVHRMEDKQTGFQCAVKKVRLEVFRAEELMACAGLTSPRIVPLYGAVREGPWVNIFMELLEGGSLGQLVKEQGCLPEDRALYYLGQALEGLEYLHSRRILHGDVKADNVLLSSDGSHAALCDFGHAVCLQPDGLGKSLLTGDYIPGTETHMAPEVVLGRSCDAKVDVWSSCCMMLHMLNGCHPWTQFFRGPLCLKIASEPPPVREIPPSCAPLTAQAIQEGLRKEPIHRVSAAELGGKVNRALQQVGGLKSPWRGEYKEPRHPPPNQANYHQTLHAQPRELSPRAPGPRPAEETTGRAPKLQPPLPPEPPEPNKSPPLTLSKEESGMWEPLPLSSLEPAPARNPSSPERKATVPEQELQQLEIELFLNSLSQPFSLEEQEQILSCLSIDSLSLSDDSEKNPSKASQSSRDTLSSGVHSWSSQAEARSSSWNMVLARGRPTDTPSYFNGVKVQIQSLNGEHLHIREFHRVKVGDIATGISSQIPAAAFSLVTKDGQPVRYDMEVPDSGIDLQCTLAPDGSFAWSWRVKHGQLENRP
Method in brief: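 GST-tagged NIK (1 nM) auto-phosphorylated with 5 μM ATP for 2 h at 25° C. in 50 mM Tris pH 7.5, 5 mM MgCl2, 1 mM EGTA, 1 mM DTT, 0.1 mM Na3VO4, 0.01% Tween 20 (0.7% DMSO). Detected by AlphaScreen via anti-phospho-IKK Ser176/180 antibody; IC50 from sigmoidal fit of % inhibition versus log concentration.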

IC50 [1] [nM] | IC50 [2] [nM] | SMILES
> 5000 | 1110 | Cc1nc(N)c2nc(-c3cccc(C#C[C@@](C)(O)c4nc(C(F)(F)F)cs4)c3)ccc2n1 [Example 192, (R)-4-(3-(4-Amino-2-methylpyrido[3,2-d]pyrimidin-6-yl)phenyl)-2-(4-(trifluoromethyl)thiazol-2-yl)but-3-yn-2-ol]
> 5000 | 7.6 | C[C@@](O)(C#Cc1cccc(-c2cnc3ncnc(N)c3c2)c1)c1nccs1 [Example 108, (R)-4-(3-(4-Aminopyrido[2,3-d]pyrimidin-6-yl)phenyl)-2-(thiazol-2-yl)but-3-yn-2-ol]
